Results on 6 compounds are retold here after patent US8802726B2, “Use of nitrooxyderivative of drug for the treatment of muscular dystrophies” (Nicox S.A., priority 2006, dated 2014).

For assay [1], the system named is α-sarcoglycan (SG)-null C57BL/6 mice. The assay is described as follows: Histology of diaphragm and tibialis anterior (inflammatory infiltrates, necrotic fibres), muscular dystrophy model. The class given is in vivo. As to conditions: for Overall effect on histological, functional and biochemical alterations (in words): α-SG-null mice, 20 to 80 days, summary of tables 1 and 2. The method, then:
(§1) Muscular Dystrophy Model (α-Sarcoglycan-Deficient Mice)
(§2) • 2-acetyloxy benzoic acid 3-(nitrooxymethyl)benzoate of formula (Ib); • pravastatin 4-(nitrooxy)butyl ester which of formula (XXXVb); • 2-fluoro-alfa-methyl-4[1,1′-biphenyl]4-acetic acid 4-nitrooxybutyl ester of formula (IIIb); • prednisolone as reference corticosteroid drug. […] At indicated time-points (ranging from 20 to 80 days) skeletal muscle function was tested by the free wheel test. 24 hours later animals were sacrificed, tissue isolated and histological characteristics analysed. Infiltrates were assessed after staining with the Azan Mallory technique; Necrotic fibres were measured in hematoxilin-stained sections; creatin kinase was measured using a commercially available kit on blood samples obtained 24 hours prior to the wheel test. […] Free Wheel Running: Voluntary wheel running was used as the exercise paradigm to avoid any physiological changes that may occur due to the stress of forced treadmill running. Mice were housed singly for a 24 hour period in a polycarbonate running wheel equipped with a magnetic counter, the output of which was sent to a speedometer, allowing quantification of the number of revolutions per day. Creatine Kinase Activity Measurements: quantitative and kinetic determination of creatine kinase activity in serum of control and drug treated-animals was measured using creatine kinase reagent (Sigma), according to the manufacturer's instructions. Blood was collected from tail of 2-7 months-old mice and serum obtained after centrifugation at 13.000 rpm for 10 minutes was stored at −80° C. before measurements. Histology: Diaphragm and tibialis anterior of untreated and drug-treated mice were isolated and included in Killik frozen section medium, quickly frozen and cut into 8-μm thick sections with the muscle fibres oriented transversely using a cryostat. Sections were stained with either Hematoxylin & Eosin or Azan Mallory, to evaluate the number of inflammatory infiltrates and necrotic fibres ([…] for tissue).

For assay [2] the test system is unchanged. The assay is described as follows: Creatine kinase activity measurements in serum, muscular dystrophy model. The class given is in vivo. As to conditions: daily in the diet, Ib 100, XXXVb 12, IIIb 30, prednisolone 3 mg/kg. The method, then: as §1, §2
The test system is the same in assay [3]. The assay is described as follows: Free wheel running test (voluntary wheel running), muscular dystrophy model. The class given is in vivo. Particulars: daily in the diet. The method, then:
as §1, §2

The test system of the next assay is α-SG-null mice. The assay is described as follows: In vivo functional test: resistance to fatigue (exhaustion) by treadmill. Particulars: for Extent of the benefit (%) on exhaustion time, treated vs untreated mice: in the diet. The protocol: The effectiveness of naproxcinod, isosorbide dinitrate (ISD) alone and in combination with ibuprofen, molsidomine and prednisolone were evaluated using a test of functional recovery in a mouse model of muscular dystrophy (α-SG-null mice). The experiments to assess the functional recovery in α-SG-null mice were performed according to the following experimental protocol. All experiments and functional evaluations were performed by the same operator in the same laboratory.
α-SG-null mice were housed in a pathogen-free facility, treated in accordance with the European Community Guidelines and with the approval of the Institutional Ethical Committee. Mice were given the following treatments: 3 mg/kg of molsidomine, 30 mg/kg of naproxcinod, 30 mg/kg of ISD alone and in combination with 50 mg/kg of ibuprofen, or 2 mg/kg of prednisolone incorporated in the diet. Control groups received the same diet without any drugs. Standard diet and diets containing the drugs were prepared based on the daily food intake of 3 g. Mice were treated starting at 1 month of age.
Analyses were carried out using a six-lane motorized treadmill (Exeter 3/6 treadmill, Columbus Instruments, OH, USA) supplied with shocker plates. The initial trials were performed at low intensity and for a short duration of time to get mice accustomed to the exercise; the treadmill was then run without inclination at 5 m/min for 5 min, after which the speed was increased 1 m/min every 3 min until a speed of 10 m/min was reached. The test was stopped when the mouse remained on the shocker for 20 sec without attempting to reengage the treadmill.
The extent of benefit (%) is expressed as the percent of the improvement of treated mice (diet containing the drug) compared to untreated mice (standard diet) on the exhaustion time.

Setting [4] is: 80 days of treatment, daily in the diet, Ib 100 mg/kg, XXXVb 12 mg/kg, IIIb 30 mg/kg, prednisolone 3 mg/kg.
[5] abbreviates: 80 days of treatment, daily in the diet, Ib 100 mg/kg, XXXVb 12 mg/kg, IIIb 30 mg/kg, prednisolone 3 mg/kg, Azan Mallory staining.
[6] abbreviates: 20 days of treatment, Ib 100, XXXVb 12, IIIb 30, prednisolone 3 mg/kg.
Setting [7] is: 40 days of treatment, Ib 100, XXXVb 12 mg/kg.
[8] abbreviates: 60 days of treatment, Ib 100, XXXVb 12 mg/kg.

Structures are written as SMILES. Marks after values point to notes of the source that are not given here.

For the compound `C[C@]12C=CC(=O)C=C1CC[C@@H]1[C@@H]2[C@@H](O)C[C@@]2(C)[C@H]1CC[C@]2(O)C(=O)CO` [Prednisolone, prednisolone, reference compound], the “N° of necrotic Fibres/section” value in assay [1] (setting [4]) is 197.1 ± 23. Besides, the “N° of inflammatory Infiltrates/section” value in assay [1] (setting [5]) stood at 59.4 ± 7.00. The CK plasma level in assay [2] (20 days of treatment) is 440.6 ± 33**^ U/ml; in assay [2] (40 days of treatment), 488.2 ± 96.5 U/ml; in assay [2] (60 days of treatment) it was 711.3 ± 69.3 U/ml; in assay [2] (80 days of treatment), 717.6 ± 31.1 U/ml. The same compound yielded a Free wheel test in assay [3] (setting [6]) of 0.55 ± 0.1 km/24 h. The “Extent of the benefit (%) on exhaustion time, treated vs untreated mice” value (from here on “Extent of the benefit (%)”) is reported as 117% in the assay with α-SG-null mice (6 months of treatment, prednisolone 2 mg/kg) and 100% in the assay on α-SG-null mice (12 months of treatment, prednisolone 2 mg/kg).
With `CC(=O)Oc1ccccc1C(=O)Oc1cccc(CO[N+](=O)[O-])c1` [(Ib), 2-(acetyloxy)benzoic acid 3-(nitrooxymethyl)phenyl ester], the “N° of necrotic Fibres/section” value in assay [1] (setting [4]) was found to be 124.1 ± 33. The “N° of inflammatory Infiltrates/section” value in assay [1] (setting [5]) was 91.3 ± 34.5. The “Overall effect on histological, functional and biochemical alterations (in words)” value (from here on “Overall effect on histological”) in assay [1] (daily in the diet) was “significantly effective in reducing the histological, functional and biochemical alterations”. In addition, the CK plasma level in assay [2] (20 days of treatment) amounted to 665.6 ± 51 U/ml; in assay [2] (40 days of treatment) it was 944.0 ± 95.5 U/ml; in assay [2] (60 days of treatment), 444.2 ± 20.2 U/ml; in assay [2] (80 days of treatment) it was 494.6 ± 56.1 U/ml. Also, the results for the Free wheel test in assay [3] (setting [6]), in assay [3] (setting [7]) and in assay [3] (setting [8]) were 0.65 ± 0.07 km/24 h, 0.42 ± 0.08 km/24 h and 0.31 ± 0.1 km/24 h, respectively.
For the compound `COc1ccc2cc([C@H](C)C(=O)OCCCCO[N+](=O)[O-])ccc2c1` [naproxcinod], the “Extent of the benefit (%)” value in the assay with α-SG-null mice (4 months of treatment, naproxcinod 30 mg/kg, ISD 30 mg/kg, ibuprofen 50 mg/kg) is recorded as 150%. Further, in the assay with α-SG-null mice (compared to molsidomine, ISD alone, ISD and ibuprofen, or prednisolone), the “Amelioration of muscle function (in words)” value is recorded as “superior amelioration of the muscle function”.
In the case of `CC(C(=O)OCCCCO[N+](=O)[O-])c1ccc(-c2ccccc2)c(F)c1` (centres unmarked) [(IIIb), 2-fluoro-alfa-methyl-4[1,1′-biphenyl]4-acetic acid 4-nitrooxybutyl ester], the “N° of inflammatory Infiltrates/section” value in assay [1] (mouse, in vivo) stood at 84.2 ± 22.5. In assay [1] (mouse, in vivo), the “N° of necrotic Fibres/section” value is on record as 48.4 ± 2.3. The “Overall effect on histological” value in assay [1] (daily in the diet) was “significantly effective in reducing the histological, functional and biochemical alterations”. Also, the CK plasma level in assay [2] (20 days of treatment) was 662.6 ± 41 U/ml; in assay [2] (40 days of treatment), 824.0 ± 90.5 U/ml; in assay [2] (60 days of treatment), 648.2 ± 25.2 U/ml; in assay [2] (80 days of treatment) it was 482.3 ± 51.2 U/ml. This compound had a Free wheel test in assay [3] (setting [6]) of 0.95 ± 0.1 km/24 h.
As for `CC[C@H](C)C(=O)O[C@H]1C[C@H](O)C=C2C=C[C@H](C)[C@H](CCC(O)C[C@H](O)CC(=O)OCCCCO[N+](=O)[O-])[C@H]21` (relative stereo) [(XXXVb), [1S-[1α(βS*,δS*),2α,6α,8β-(R*),8aα]]-1,2,6,7,8,8a-hexahydro-β,δ,6-trihydroxy-2-methyl-8-(2-methyl-1-oxobutoxy)-1-naphthaleneheptanoic acid 4-(nitrooxy)butyl ester], in assay [1] (setting [4]), the “N° of necrotic Fibres/section” value was determined as 35 ± 2.1. The “N° of inflammatory Infiltrates/section” value in assay [1] (setting [5]) turned out to be 54.2 ± 8.05. Moreover, the “Overall effect on histological” value in assay [1] (daily in the diet) was “significantly effective in reducing the histological, functional and biochemical alterations”. Further, the CK plasma level in assay [2] (20 days of treatment) is on record as 440.6 ± 33**^ U/ml; in assay [2] (40 days of treatment) it was 488.2 ± 96.5 U/ml; in assay [2] (60 days of treatment) it was 627.4 ± 69.3 U/ml; in assay [2] (80 days of treatment), 614.8 ± 37**^ U/ml. For the same compound, the Free wheel test in assay [3] (setting [6]) was 0.55 ± 0.03 km/24 h; in assay [3] (setting [7]), 0.58 ± 0.01 km/24 h; in assay [3] (setting [8]) it was 0.54 ± 0.03 km/24 h; in assay [3] (80 days of treatment, XXXVb 12 mg/kg), 0.65 ± 0.05 km/24 h.
`CCOC(=O)[N-]c1cn(N2CCOCC2)n[o+]1` [molsidomine]: in the assay on α-SG-null mice (8 months of treatment, molsidomine 3 mg/kg, ISD 30 mg/kg, ibuprofen 50 mg/kg), the “Extent of the benefit (%)” value came out at 63%.
